Experimental data as given in patent publication US20130136803A1, “COMPOSITIONS FOR ALGAE TREATMENT IN RECIRCULATING AND STAGNANT WATER SYSTEMS” (ARCH CHEMICALS, INC., priority 2011, published 2013).

Tested on: wild mustard algae strain
Experiment: Efficacy of zinc and chelating agents against mustard algae (biomass over time by absorbance at 450 nm and visual assessment)
Format: cell-based
Details: FIGS. 1-4
Description: A wild mustard algae strain isolated from a residential swimming pool was used in this study. This strain was re-suspended into sterile capped flasks of 250 ml capacity, containing 100 ml sterile Kratz/Meyers (KM) algae medium. Algae stock cultures were incubated at room temperature with a 16/8 hours on/off cycle white fluorescent lighting for approximately 2 weeks to obtain actively growing liquid cultures at the time of experiment.
Sterile KM medium was dispensed in 50 ml aliquots into sterile 125 ml capped Erlenmeyer flasks containing 40 glass beads of 6 mm diameter. Beads provided an increased surface area for algae to attach, since this alga develops as a loosely attached yellow growth on pool surfaces. Simultaneously, beads helped to homogenize samples by grinding at the time of sampling. An initial mustard algae culture of approximately 2×104 was set into each flask. […]
Algal cultures were challenged with 2 or 4 ppm zinc from zinc sulfate monohydrate combined with 2 or 10 ppm chelator. […] Biomass was measured over time by surrogate parameters: absorbance and visual assessment. Absorbance was measured at 450 nm using 1 inch cell in a spectrophotometer; visual assessment range was 0-3, where “0” equal to no growth and “3” equal to very heavy growth. The results of the optical readings were arithmetically averaged. […]

## O=P1([O-])OP(=O)([O-])OP(=O)([O-])OP(=O)([O-])OP(=O)([O-])OP(=O)([O-])O1.[Na+].[Na+].[Na+].[Na+].[Na+].[Na+] [SHMP, sodium hexametaphosphate]
2 or 4 ppm zinc from zinc sulfate monohydrate combined with 2 or 10 ppm chelator, 3 weeks, compared with zinc alone
  effect of chelating agent on the algaestatic activity of zinc ions: enhanced the performance of the algaestatic activity of zinc ions at all concentrations
Zinc to SHMP ratios 2:1 to 1:5
  dependence of the enhancing effect on the ratio of zinc to SHMP: effect became greater with increasing amount of SHMP to a ratio of 1:5
